From patent publication US5114851A, “Light activated acyl-enzymes” (Duke University, priority 1989, dated 1992)
Counter-ions that a name gives are not always drawn.

Columns and labels:
[1] = tested on: thrombin; assay: Acylation (inactivation) of thrombin monitored by chromogenic assay; assay type: biochemical; details: 1- to 5-fold excess of compound; thrombin 1.5 μM; pH 7.4 Tris buffer
Excerpt: The reaction of 4-Amidinophenyl-(E)-2-hydroxy-4-diethylamino-α-methylcinnamate hydrocholoride (Compound F) with thrombin to form an acyl-thrombin (hereinafter "DEA acyl-thrombin") was monitored by chromogenic assay. See A. Turner, et al., 110 J.Am.Chem.Soc. 244 (1988); B. Blomback, Theoretical Considerations of Substrate Structures Governing Enzyme Specificity, 3 (M. Scully and V. Kakkar eds 1979)(New York: Churchill Livingston). A 1- to 5-fold excess of 4-Amidinophenyl-(E)-2-hydroxy-4-diethylamino-α-methylcinnamate with thrombin (1.5 μM) in pH 7.4 Tris buffer led to complete loss of thrombin activity in less than 1 hour.

[2] = Photolysis of model compounds and cyclization of the cis photoisomer to the coumarin (conventional spectroscopy or flash photolysis); assay type: physicochemical
Excerpt: Preliminary to our studies of the enzyme system, we studied the photochemistry of the model compounds Ethyl-(E)-2-methoxy-4-diethylamino-α-methylcinnamate and Ethyl-(E)-2-hydroxy-4-diethylamino-α-methylcinnamate (hereinafter "DEA acyl", as this compound models DEA acyl-thrombin with ethyl in place of thrombin). Photolysis of Ethyl-(E)-2-methoxy-4-diethylamino-α-methylcinnamate with 366 nm light results in a rapid decrease in absorbance as the cis photoisomer is formed (In all photolyses reported here, except for the laser flash studies, the source lamp was a mercury 500 W high pressure lamp. The 366 nm emission was isolated by a Bausch and Lomb grating monochromator). At the photostationary state, the cis photoisomer is 60% of the mixture, and the ε of the cis compound is <40% of that of the trans at 360 nm. Photolysis for 5 minutes of DEA acyl in 98% ethanol/2% pH 7.4 Tris buffer gives a sharp decrease in the absorbance at 360 nm, followed by a slow increase in absorbance at 380 nm due to the dark formation of the 3-methyl-7-N,N-diethylamino-coumarin (hereafter "the coumarin"). The increase in the absorbance due to the coumarin is first order with kc =7.17·10^-4 s^-1. The presence of the cis isomer has been confirmed by NMR after photolysis as <0° C. […] Photolysis of trans DEA acyl in Tris buffer alone gives a clean conversion to coumarin with an isosbestic point observed at 370 nm. Thus, in Tris and using conventional spectroscopy, there is no evidence for the formation of cis DEA acyl in the conversion of the trans isomer to coumarin, but flash photolysis experiments (vide infra) indicate that the cis intermediate is formed, but is very reactive in this solvent.
No evidence for a cis acyl enzyme photoisomer is seen by conventional spectroscopy. However, flash photolysis (10 nsec) of DEA acyl or DEA acyl-thrombin in Tris buffer with 355 nm light from a Nd/Yad laser does give evidence for the cis photoisomer. For both DEA acyl and DEA acyl-thrombin, the flash results in an immediate decrease in absorbance at 380 nm, followed by a first order increase of absorbance as the coumarin forms from the cis intermediate.

Q: With `CCN(CC)c1ccc(/C=C(\C)C(=O)Oc2ccc(C(=N)N)cc2)c(O)c1` [Compound F, 2-Propenoic acid, 3-(2-hydroxy-4-diethylaminophenyl)-2-methyl-, 4-(aminoiminomethyl)phenyl ester,(E)-, monohydrochloride salt] as the compound, how does the “loss of thrombin activity” value [1] read?
A: The value was “complete loss”.

Q: And the “time to complete loss of thrombin activity” value [1]?
A: The value was “less than 1 hour”.

Q: With `CCOC(=O)/C(C)=C/c1ccc(N(CC)CC)cc1OC` [Ethyl-(E)-2-methoxy-4-diethylamino-α-methylcinnamate] as the compound, how does the “ε of the cis compound relative to that of the trans” value ([2]; at 360 nm) read?
A: The value was less than 40%.

Q: Which “First Order Rate Constant (cyclization of cis photoisomer to the coumarin)” value ([2]; 2/98 ethanol/Tris pH 7.4, 23° C., flash photolysis) does the source give for `CCOC(=O)/C(C)=C\c1ccc(N(CC)CC)cc1O` [cis DEA acyl] here?
A: The value was 1.7 ± 0.5 s⁻¹.

Q: What about the “increase of the rate of cyclization with solvent” value ([2]; 50/50 ethanol/Tris buffer versus 98% ethanol/2% Tris) of the same compound?
A: The value was “two orders of magnitude”.

Q: What about the “Half-Life of cyclization to give the coumarin” value ([2]; 50/50 ethanol/Tris pH 7.4, 23° C.) of the same compound?
A: The value was 7.1 s.

Q: What about the “Half-Life of cyclization to give the coumarin” value ([2]; 98/2 ethanol/Tris pH 7.4, 23° C.) of the same compound?
A: Its value is 966 s.
